Experimental data reported in US9376391B2, “Difluoromethyl-nicotinic-tetrahydronaphthyl carboxamides as fungicides” (BAYER CROPSCIENCE AKTIENGESELLSCHAFT, priority 2012, dated 2016).

Assays:
[1] = system: Botrytis cinerea; experiment: In vivo preventive test on Botrytis cinerea (grey mould), gherkin plants
Summary of the method: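 Gherkin plants sprayed at Z11 cotyledon stage with compound in acetone/tween/DMSO/water, inoculated 24 h later with B. cinerea spores (50 000 spores per ml) in nutrient solution. Kept at 17° C., 90% relative humidity; % efficacy graded 4 to 5 days post-inoculation versus solvent-treated controls.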

[2] = system: Pyrenophora teres; experiment: In vivo preventive test on Pyrenophora teres (net blotch on barley)
Description: In Vivo Preventive Test on Pyrenophora teres (Net Blotch on Barley)
The active ingredients tested are prepared by homogenization in a mixture of acetone/tween/DMSO, and then diluted with water to obtain the desired active material concentration.
Barley plants (“Plaisant” variety), sown in starter cups on a 50/50 peat soil-pozzolana substrate and grown at 22° C., are treated at the 1-leaf stage (10 cm height) by spraying with the active ingredient prepared as described above. Plants, used as controls, are treated with the mixture of acetone/tween/DMSO/water not containing the active material.
After 24 hours, the plants are contaminated by spraying the leaves with an aqueous suspension of Pyrenophora teres spores (12 000 spores per ml). The spores are collected from a 12-day-old culture. The contaminated barley plants are incubated for 48 hours at 20° C. and at 100% relative humidity, and then for 12 days at 20° C. at 70-80% relative humidity.
Grading (% of efficacy) is carried out 14 days after the contamination, in comparison with the control plants. plants.

[3] = dose 100 ppm of active ingredient, comparison with known compounds
[4] = dose 100 ppm, comparison with known compounds, same conditions

CC1CC(C)(C)c2cccc(NC(=O)c3cccnc3C(F)F)c21 (stereo not drawn) [Example 1]
100%: Efficacy [1, 4] | Eff. % ([1]; dose 500 ppm, gherkin, spray, graded 4 to 5 days after contamination vs control plants) | Efficacy [2, 4] | Eff. % ([2]; dose 500 ppm, barley, spray, graded 14 days after contamination vs control plants)
total protection: protection (in words) [1, 3] | protection (in words) [2, 3]
